Data on one substance can be found in publication PMC7038139, “Novel Peptide CM 7 Targeted c-Met with Antitumor Activity” (Molecules, 2020).

Entries after “also recorded” stand apart in the source; their conditions may differ.

In one data set the test system is MDCK cells. Kind of data set: Cell scatter assay (HGF-induced). The following applies: HGF 100 ng/mL, 24 h, 37 °C. The class given is cell-based, canine. The method, then: MDCK cells were detached from the tissue culture plate and seeded in 96-well plates at the final concentration of 1.5 × 10^3 cells/well overnight. Different concentrations of CM 7 without or with HGF (100 ng/mL) were added to the preset wells. After incubating for 24 h at 37 °C and 5% CO2, 4% paraformaldehyde was used to fix the cells, which were then stained with 0.2% crystal violet. The plates were washed with clean water. When dried, an Olympus IX53 microscope was used to capture the images.

The subject of data set [1] is c-Met and its downstream signaling molecules in MKN-28 cells. The experiment in a line: Western blot of c-Met signaling, MKN-28. The format is cell-based, Human. The method, then: (§1) Western blot analysis was performed using an extraction buffer as described. MKN-45, MKN-28 and U87 cells were cultured in serum-free medium overnight, then treated with the indicated dose of peptide CM 7 for 24 h at 37 °C after stimulated without or with HGF for 15 min. Next, total cell lysates were separated by 12% SDS-polyacrylamide gel (SDS-PAGE) and transferred to polyvinylidene difluoride (PVDF) membranes. The PVDF membranes were probed with following primary antibodies: anti-phospho-Met (Tyr1234/1235, (Cell Signaling Technology, Beverly, MA, USA), anti-Met (Affinity, USA), anti-phospho-AKT (Ser473, (Affinity, USA)), anti-AKT (Affinity, USA), anti-phospho-Erk1/2 (Thr202/Tyr204, (Affinity, USA)), anti-Erk1/2 (Affinity, USA), anti-E-cadherin (WanleiBio, Shengyang, China), and anti-GAPDH (Multi Sciences, Hangzhou, China). Then, horseradish-peroxidase-conjugated anti-rabbit IgG was used as a second antibody. The immunoreactive proteins were exposed using an enhanced chemiluminescence detection reagent (WanleiBio, Shengyang, China). After sacrificing the mice and isolating the tumor tissue, Western blot was performed as previously described.
(Immunoblotting shows a protein as a band on a membrane.)

Another data set deals with U87 cells. The experiment in a line: Cell proliferation assay, U87 (HGF-stimulated). The format is cell-based, human. The conditions noted are these: CM 7, various concentrations; 20 ng/mL HGF; 4 days; serum-free medium; cell count; means of six determinations. The procedure: Human gastric cancer cell line MKN-45 cells were from the Chinese Academy of Medical Sciences, Beijing, China. Human gastric cancer cell line MKN-28 cells, the human glioma cell line U87 cells, and MDCK cells were obtained from the American Type Culture Collection (ATCC). The MKN-45 and MKN-28 cells were grown under a humidified atmosphere of 5% CO2 at 37 °C in RPMI 1640 medium (Biological Industries, Israel), supplemented with 10% fetal bovine serum (FBS, Biological Industries, Israel), 2 mmol/L L-glutamine (Gibco, Life Technologies, Grand Island, NY, USA), 100 U/mL penicillin, and 100 μg/mL streptomycin (Invitrogen, Carlsbad, CA, USA). MDCK and U87 cells were cultured under a humidified atmosphere of 5% CO2 at 37 °C in Dulbecco’s modified Eagle’s medium (DMEM) (Gibco, Life Technologies, Grand Island, NY, USA), supplemented with 10% FBS, 2 mmol/L L-glutamine (Gibco, Life Technologies, Grand Island, NY, USA), 100 U/mL penicillin, and 100 μg/mL streptomycin (Invitrogen, Carlsbad, CA, USA).
As described in the literature, MKN-45, MKN-28, and U87 cells were seeded into 48-well culture plates (6500 cells/well) and cultured overnight. […] After 4 days, the cells were trypsinized and counted by a cell counter. […]

The subject of the next data set is human c-Met protein. The experiment in a line: Affinity to c-Met protein (as stated in abstract and discussion). The format is binding. The following applies: in words only; Kd not given.
Data set [2] is described as follows: Body weight / tolerability in tumor-bearing mice. The class given is in vivo, Balb/c nude mice. The conditions noted are these: each peptide group (5, 10, 20 mg/kg s.c. twice a day, 28 days). The method, then: Four-to-five-week-old female Balb/c nude mice, housed in specific pathogen-free conditions, were used to evaluate antitumor activity in vivo. All animal studies were performed according to the institutional ethical guidelines for animal care.
MKN-45 cells at a density of 5 × 10^6 in 200 μL were injected subcutaneously into the flank of the mice. CM 7 (5, 10, or 20 mg/kg) was injected subcutaneously for each group twice a day for four weeks. As a positive control, Crizotinib (50 mg/kg) was given to tumor-bearing mice by gavage once a day for a total of 28 days. The tumor volume was measured with calipers in two dimensions: tumor volume = 1/2 × a × b^2, where a is the length of the tumor, and b is the width of the tumor. All of the mice were sacrificed on day 42, and the tumor tissue was isolated and weighed.
Figure S1: The chemical structure, molecular mass, and purity of peptide FITC-CM 7. […] (C) The purity of peptide FITC-CM 7 was determined by high-performance liquid chromatography (HPLC) to be 97.3%. […] (C) The purity of peptide FITC-CM 7 was determined by HPLC to be 96.7%. Figure S3: The mean body weight of tumor-bearing mice treated daily for four weeks with vehicle (0.2% DMSO) or Crizotinib (50 mg/kg) by gavage, and the tested peptide CM 7 or vehicle (PBS) that was subcutaneously injected twice a day for four weeks was measured every other day during the study. […]

Data set [3] concerns c-Met and its downstream signaling molecules in MKN-45 cells. The experiment in a line: Western blot of c-Met signaling, MKN-45. The following applies: 24 h. The format is cell-based, Human. The procedure: as §1

Regarding “DQIIANN [CM 7, Novel peptide DQIIANN targeting the tyrosine kinase receptor c-Met]”, the “Inhibition of growth of cell pseudopodia” value in the data set on MDCK cells (1 μM) is “completely inhibited”. Besides, in the data set with MDCK cells (dose-dependent), the “Inhibition of HGF-induced cell scattering” value is reported as “moderate regulation; also recorded: remarkably inhibit the HGF-induced cell scattering of MDCK cells in a dose-dependent manner”. Besides, the “Expression of E-cadherin” value in data set [1] is on record as “no effect”; in data set [3], “increase the expression of E-cadherin”. The “Phosphorylation of c-Met, Akt and Erk” value was “not MKN-28 cells; also recorded: no effect” in data set [1] and “effectively inhibit” in data set [3] (dose-dependent). In addition, the “Inhibition of cell proliferation” value in the data set with U87 cells is reported as “inhibit the proliferation of MKN-45 or U87 cells to a certain extent with considerable dose dependence”. Besides, in the data set on human c-Met protein, the “Affinity to c-Met” value is “specific binding to c-Met with high affinity”. For the same substance, the “Weight loss of mice” value in data set [2] is reported as “no significant weight loss”. Moreover, the Tolerability / toxicity result in data set [2] (from body weight) is “well tolerated and slightly or nontoxic”.
